What was measured:
[1] = system: 6-OHDA-treated Neuro-2a cells; test: ROS level in 6-OHDA-treated cells (H2DCFDA); type: cell-based, murine
Protocol: (§1) The murine neuroblastoma cell line Neuro-2a was purchased from ATCC.
(§2) Neuro-2a cells were cultured in DMEM medium containing 10% fetal bovine serum (Biolot, St. Petersburg, Russia) and 1% penicillin/streptomycin (Biolot, St. Petersburg, Russia). Cells were incubated at 37 °C in a humidified atmosphere containing 5% (v/v) CO2 [71].
(§3) The cells (1 × 10^4 cells/well of a 96-well plate) were incubated with compound solutions (10 µM) during 1 h. Then, 6-OHDA/PQ/rotenone were added to cell suspension to resulting concentration of 50 µM, 500 µM and 10 µM respectively for incubation during 1 h. Cells incubated without neurotoxins and compounds and with neurotoxins alone were used as positive and negative controls, respectively. The 20 µL of 2,7-dichlorodihydrofluorescein diacetate solution (H2DCFDA, Molecular Probes, Eugene, OR, USA) was added to each well (10 µM, final concentration) and the plate was incubated for an additional 10 min at 37 °C. The intensity of dichlorofluorescein fluorescence was measured with PHERAstar FS plate reader (BMG Labtech, Ortenberg, Germany) at λex = 485 nm and λem = 518 nm. The data were processed by MARS Data Analysis v. 3.01R2 (BMG Labtech, Germany). The results were presented as the percent of positive control data.

[2] = system: PQ-treated Neuro-2a cells; test: Paraquat-induced PD cell model, cell viability (MTT); type: cell-based, murine
Protocol: as §1, §2
(§4) The neuroblastoma Neuro-2a line cells (1 × 10^4 cells/well) were treated with the test compounds at concentrations of 1 and/or 10 µM for 1 h, and then the neurotoxins were added to the neuroblastoma cell suspensions. Rotenone (Sigma-Aldrich, USA) was used at the concentration of 10 µM. Paraquat (Sigma-Aldrich, USA) was used at 500 µM. 6-Hydroxydopamine (Sigma-Aldrich, USA) was used at 50 µM. Cells incubated without neurotoxins and the test compounds and cells incubated with neurotoxins only were used as positive and negative controls, respectively. After 24 h of incubation, the cell viabilities were measured using the MTT method. The results are presented as the percent of positive control data.

MTT cytotoxicity assay = type: cell-based, murine; settings: mouse, Neuro-2a neuroblastoma cells; Neuro-2a cells, MTT
Protocol: as §1, §2
The in vitro cytotoxicity of the individual substances was evaluated using an MTT (3-(4,5-dimethylthiazol-2-yl)-2,5-diphenyltetrazolium bromide) assay, which was performed according to the manufacturer’s instructions (Sigma-Aldrich, USA). Absorbance of the converted formazan was measured using a Multiskan FC plate photometer (Thermo Scientific, Waltham, MA, USA) at λ = 570 nm. The results were presented as percent of control data, and concentration of cell viability inhibition on 50% (IC50) was calculated.

[3] = system: PQ-treated Neuro-2a cells; test: ROS level in PQ-treated cells (H2DCFDA); type: cell-based, murine
Protocol: as §1, §2
as §3, with “The cells (1 × 10^4 cells/well of a 96-well plate) were incubated with compound solutions (10 µM) during 1 h.” left out

[4] = no exact data published; cited from earlier work
[5] = system: rotenone-treated Neuro-2a cells; test: ROS level in rotenone-treated cells (H2DCFDA); type: cell-based, murine
Protocol: as §1, §2, §3

[6] = DPPH radical scavenger assay; settings: for EC50 / DPPH Radical Scavenging 100 µM % of MeOH: 30 min; for EC50: MeOH, read-out: DPPH Radical Scavenging EC50; for DPPH Radical Scavenging 100 µM % of MeOH: compound 100 µM, absorbance 520 nm
Protocol: The DPPH radical scavenging activities of the compounds were tested as described.
The compounds were dissolved in MeOH, and the solutions (120 µL) were dispensed into wells of a 96-well microplate. In all, 30 µL of the DPPH (Sigma-Aldrich, Steinheim, Germany) solution in MeOH (7.5 × 10^−3 M) was added to each well. The concentrations of the test compounds in the mixtures were 10 and 100 µM. The mixtures were shaken and left to stand for 30 min, and the absorbance of the resulting solutions was measured at 520 nm with a microplate reader MultiscanFC (ThermoScientific, Waltham, MA, USA). The concentration scavenging 50% of the DPPH radical (EC50) was calculated for each investigated compound.

[7] = system: Neuro-2a cells treated with 6-OHDA; test: 6-OHDA-induced PD cell model, cell viability (MTT); type: cell-based, murine; settings: compounds 6-12 at 1 µM; 6-OHDA 50 µM
Protocol: as §1, §2, §4

[8] = system: rotenone-treated Neuro-2a cells; test: Rotenone-induced PD cell model, cell viability (MTT); type: cell-based, murine
Protocol: as §1, §2, §4

[9] = parameters: method as in doi:10.1007/BF03175531; settings: cited from earlier work
[10] = system: Escherichia coli and Bacillus subtilis; parameters: method as in doi:10.1007/s10600-016-1745-x; settings: cited from earlier work
[11] = parameters: method as in doi:10.1007/BF01922472, doi:10.1016/j.tet.2016.09.008; settings: cited from earlier work
[12] = system: MCF-7, HepG-2, NCI-H460 and SF-268; parameters: method as in PMID 18444265, PMID 28481313, PMID 27128202; settings: four tumor cell lines and some others; cited from earlier work
Nrf2-ARE pathway = system: Nrf2-ARE pathway; parameters: method as in PMID 27450949; settings: cited from earlier work
[13] = compounds 1-5, compound 10 µM 1 h, 6-OHDA 50 µM 1 h
[14] = compounds 1-5, compound 10 µM 1 h, PQ 500 µM 1 h
[15] = compounds 1-5, compound 10 µM 1 h, rotenone 10 µM 1 h

For COc1cc(O)cc2c1C(=O)c1c(O)cc(C)cc1C2=O [Compound 12, questin], the “influence on ROS level in 6-OHDA-treated cells” value ([1]; compounds 6-12, 1 µM (method: 10 µM), 6-OHDA 50 µM) was “significant in vitro anti-ROS activity”, the “cytoprotective activity in PQ-induced PD cell model” value ([2]; compounds 6-12 at 1 µM, paraquat 500 µM) was “inactive” and the IC50 (MTT cytotoxicity assay) was over 100 µM. For the same molecule, the “influence on ROS level in PQ-treated cells” value ([3]; compounds 6-12, 1 µM (method: 10 µM), PQ 500 µM) was “significant in vitro anti-ROS activity”, the DPPH-radical scavenging activity [4] was “DPPH-radical scavenging activity has been reported” and the “influence on ROS level in rotenone-treated cells” value ([5]; compounds 6-12, 1 µM (method: 10 µM), rotenone 10 µM) was “significant in vitro anti-ROS activity”. The EC50 [6] was over 100 µM, the “radical scavenging activity in cell-free assay” value ([6]; DPPH, up to 100 µM) was “did not show any significant DPPH radical scavenging” and the “DPPH Radical Scavenging 100 µM % of MeOH” value [6] was 87.7 ± 2.4 % of MeOH. The “cytoprotective activity in 6-OHDA-induced PD cell model” value [7] was “inactive” and the “cytoprotective activity in rotenone-induced PD cell model” value ([8]; compounds 6-12 at 1 µM, rotenone 10 µM) was “moderate cytoprotective activity”.
In the case of COc1c2c(c(OC)c(O)c1-c1c[nH]c3ccccc13)C1(O)c3ccccc3NC1O2 (centres unmarked) [Compound 6, 3-(1H-indol-3-yl)-1,4-dimethoxy-5a,6-dihydro-10bH-benzofuro [2,3-b]indole-2,10b-diol], the IC50 (MTT cytotoxicity assay) is reported as over 100 µM, the EC50 [6] is reported as over 100 µM and the “DPPH Radical Scavenging 100 µM % of MeOH” value [6] is reported as 67.3 ± 3.9 % of MeOH.
In the case of C[n+]1ccc(-c2cc[n+](C)cc2)cc1 [PQ, paraquat, reference compound], the “decrease of Neuro-2a cell viability by neurotoxin” value ([2]; paraquat 500 µM alone, 24 h) is reported as 44% and the “increase of intracellular ROS level by neurotoxin” value (“increase” below) ([3]; PQ 500 µM alone, 1 h) is reported as 48%.
In the case of O=C1C[C@H](O)[C@@H](O)c2cc(O)cc(O)c21 [Compound 1, (3S,4S)-4-hydroxyscytalone], the “influence on ROS level in 6-OHDA-treated cells” value [1, 13] is listed as “decreased a ROS level”, the antinematodal activity [9] is listed as “antinematodal agents” and the IC50 (MTT cytotoxicity assay) is listed as over 100 µM. For the same molecule, the “influence on ROS level in PQ-treated cells” value [3, 14] was “decreased a ROS level”, the “influence on ROS level in rotenone-treated cells” value [5, 15] was “decreased a ROS level” and the EC50 [6] was over 100 µM. The “DPPH Radical Scavenging 100 µM % of MeOH” value [6] was 83.4 ± 1.2 % of MeOH, the antimicrobial activity [10] was “weak antimicrobial activity” and the phytotoxic activity [11] was “phytotoxic”. For the same molecule, the “cytotoxicity against tumor cell lines” value [12] was “no activity was shown”.
For COC1=C(c2c[nH]c3ccccc23)C(=O)C(OC)=C(c2c[nH]c3c(CC=C(C)C)cccc23)C1=O [Compound 10, asterriquinone C2], the IC50 (MTT cytotoxicity assay) was over 100 µM, the EC50 [6] was over 100 µM and the “DPPH Radical Scavenging 100 µM % of MeOH” value [6] was 91.3 ± 1.1 % of MeOH.
For NCCc1cc(O)c(O)cc1O [Compound 6-OHDA, 6-hydroxydopamine, reference compound], the “increase” value ([1]; 6-OHDA 50 µM alone, 1 h) was 66%.
With C=C(C)[C@H]1Cc2c(ccc3c2O[C@@H]2COc4cc(OC)c(OC)cc4[C@@H]2C3=O)O1 [Rotenone, reference compound] the “increase” value ([5]; rotenone 10 µM alone, 1 h) was 79% and the “decrease of Neuro-2a cell viability by neurotoxin” value ([8]; rotenone 10 µM alone, 24 h) was 48%.
For C=CC(C)(C)c1[nH]c2ccccc2c1C1=C(OC)C(=O)C(c2c(C(C)(C)C=C)[nH]c3ccccc23)=C(OC)C1=O [Compound 8, asterriquinone B4], the IC50 (MTT cytotoxicity assay) was 91.5 ± 1.87 µM, the EC50 [6] was over 100 µM and the “DPPH Radical Scavenging 100 µM % of MeOH” value [6] was 89.5 ± 0.9 % of MeOH.
For C=CC(C)(C)c1[nH]c2ccccc2c1C1=C(OC)C(=O)C(c2c[nH]c3ccccc23)=C(OC)C1=O [Compound 9, asterriquinone C1], the IC50 (MTT cytotoxicity assay) was 42.3 ± 1.45 µM, the EC50 [6] was over 100 µM and the “DPPH Radical Scavenging 100 µM % of MeOH” value [6] was 82.4 ± 1.7 % of MeOH.
In the case of O=C1C[C@H](O)[C@@H](O)c2cccc(O)c21 [Compound 2, (3S,4S)-4-hydroxy-6-dehydroxyscytalone], the “influence on ROS level in 6-OHDA-treated cells” value [1, 13] is given as “decreased a ROS level”, the antinematodal activity [9] is given as “antinematodal agents” and the IC50 (MTT cytotoxicity assay) is given as over 100 µM. The “influence on ROS level in PQ-treated cells” value [3, 14] was “decreased a ROS level”, the “influence on ROS level in rotenone-treated cells” value [5, 15] was “decreased a ROS level” and the EC50 [6] was over 100 µM. For the same molecule, the “DPPH Radical Scavenging 100 µM % of MeOH” value [6] was 84.8 ± 3.2 % of MeOH and the phytotoxic activity [11] was “phytotoxic”.
In the case of COC1=C(c2c[nH]c3ccccc23)C(=O)C(OC)=C(c2c[nH]c3ccccc23)C1=O [Compound 11, asterriquinone D], the IC50 (MTT cytotoxicity assay) is reported as over 100 µM, the EC50 [6] is reported as over 100 µM and the “DPPH Radical Scavenging 100 µM % of MeOH” value [6] is reported as 85.6 ± 1.3 % of MeOH.
For C=CC(C)(C)c1[nH]c2ccccc2c1C1=C(OC)C(=O)C(c2cn(C(C)(C)C=C)c3ccccc23)=C(OC)C1=O [Compound 7, Asterriquinone A3], the IC50 (MTT cytotoxicity assay) was over 100 µM, the EC50 [6] was over 100 µM and the “DPPH Radical Scavenging 100 µM % of MeOH” value [6] was 88.9 ± 1.6 % of MeOH. For the same molecule, the “cytoprotective activity in 6-OHDA-induced PD cell model” value [7] was “weak cytoprotective activity”.
In the case of CC1CC(O)CC2(Cc3cc(O)cc(O)c3C(=O)O2)O1 (centres unmarked) [Compound 3, demethylcitreoviranol], the IC50 (MTT cytotoxicity assay) is reported as over 100 µM, the “influence on ROS level in PQ-treated cells” value [3, 14] is reported as “effective against ROS level enhancing” and the “influence on ROS level in rotenone-treated cells” value [5, 15] is reported as “effective against ROS level enhancing”. The EC50 [6] was over 100 µM, the “DPPH Radical Scavenging 100 µM % of MeOH” value [6] was 91.2 ± 1.8 % of MeOH and the “inducing of the Nrf2-ARE pathway” value (Nrf2-ARE pathway) was “weak inducing of the Nrf2-ARE pathway”.

Reference: PMC7760690, “Neuroprotective Metabolites from Vietnamese Marine Derived Fungi of Aspergillus and Penicillium Genera” (Marine Drugs, 2020)
